Data reported in PMC3465485 (Antiviral research, 2012).
Where two headings read alike, the source gives them in different places.

What was measured:
[1] = system: influenza A/California/07/2009 (H1N1) virus
[2] = system: influenza A/California/07/2009 (H1N1) virus; experiment: microbe, parasite or virus in culture; details: H1N1, MDCK
in vitro = details: dog
[3] = target: A/California/07/2009 neuraminidase (Influenza A virus (A/California/07/2009(H1N1)), UniProt C3W6G3); assay type: biochemical
[4] = 100 mg/kg/day; no reference given; cited from earlier work

Molecule | antiviral activity in cell culture (in words) [1] | EC50 [2] [µM] | CC50 (in vitro) [µM] | EC50 [1] [µM] | SI (CC50/EC50) [1] | other results
NC12CC3CC(CC(C3)C1)C2 [Amantadine] | no antiviral effect | > 100 | > 100 |  |  | 
CCC(CC)O[C@@H]1C=C(C(=O)O)C[C@H](N)[C@H]1NC(C)=O [Oseltamivir Carboxylate, Oseltamivir carboxylate] |  |  | > 100 | 0.06 ± 0.1 |  | neuraminidase inhibition (in words) [3]: slightly less potent than the other two compounds
NC(=O)c1ncn([C@@H]2O[C@H](CO)[C@@H](O)[C@H]2O)n1 [Ribavirin] |  | 28 ± 11 |  |  |  | toxicity in mice (in words) [4]: begins to cause toxicity
CC(N)C12CC3CC(CC(C3)C1)C2 (stereo not drawn) [Rimantadine] | no antiviral effect | > 22 | 22 ± 1 |  | 0 | 
CC(=O)N[C@H]1[C@H]([C@H](O)[C@H](O)CO)OC(C(=O)O)=C[C@@H]1N=C(N)N [Zanamivir] |  |  | > 100 | 0.08 ± 0.07 |  | 
Peramivir |  |  |  | 0.04 ± 0.07 | >2500 | CC50 (MDCK cells): > 100 µM; IC50 [3]: 0.0029 ± 0.0006 µM
